Tested on: tested viruses (K/09, rK09/NA:Y275, K/2785)
Assay type: cell-based, 2009 pandemic H1N1 virus
Conditions: read-out: concentration sufficient to restrict viral replication (EC50)

`NC(=O)c1nc(F)cnc1O` [Favipiravir, 6-fluoro-3-hydroxy-2-pyrazinecarboxamide] was tested, and the EC50 was 8.39 to 14.7 µM.

Reference: article PMC4081560 (PLoS ONE, 2014)
